# Experimental data: PMC6325200, “Effects of Microplate Type and Broth Additives on Microdilution MIC Susceptibility Assays” (Antimicrobial Agents and Chemotherapy, 2018)
# Where two headings read alike, the source gives them in different places.
# What was measured:
# [1] = cited from earlier work
# Description: Other assay additives can affect MIC values. […] This in turn translates into reduced ...
# [2] = test system: S. aureus GISA NRS 2; ATCC 700698; assay: microbe, parasite or virus in culture; conditions: n = 2
# Description: (§1) A positive control of a row of just the bacteria and a negative control of only the medium were included for every plate tested.
# (§2) The compounds along with standard antibiotics were serially diluted 2-fold across the 96-well plates. […] A sample of each culture was then diluted 40-fold in fresh MH broth (in presence and absence of Tween) and incubated at 37°C for 2 to 3 h.
# E. faecalis ATCC 29212 = assay: microbe, parasite or virus in culture; conditions: n = 2
# Description: as §1, §2
# S. pneumoniae ATCC 33440 = assay: microbe, parasite or virus in culture; conditions: n = 2
# Description: as §1, §2
# [3] = test system: S. pneumoniae ATCC 700677 (MDR); assay: microbe, parasite or virus in culture; conditions: n = 2
# Description: as §1, §2
# [4] = test system: MSSA S. aureus ATCC 25923; assay: microbe, parasite or virus in culture; conditions: n = 2
# Description: as §1, §2
# MRSA = conditions: literature value; cited from earlier work
# Description: TABLE 1 Literature MIC values for tested antibiotics | column: MIC (µg/ml) (reference[s]) / MRSA
# S. pyogenes ATCC 12344 = conditions: n = 2
# Description: as §1, §2
# [5] = literature values, reference given; cited from earlier work
# Description: Other assay additives can affect MIC values. […] Plasma protein binding has been implicated as a major factor limiting the active free concentration of many clinically important antibiotics ([37][–][42]).
# MRSA ATCC 43300 = test system: MRSA ATCC 43300
# Description: as §1, §2
# For experiments in the presence of surfactant, 2% beractant (25 mg/ml) was added to the mid-log-phase cultures and mixed gently and added to all the 96-well plates. For experiments in the presence of serum, a mixture of 50% of human serum along with 50% MHB was prepared and used throughout the experiment.
compound,measurement,setting,value
"CCCCCCCCCCNCCN[C@@]1(C)C[C@H](O[C@H]2[C@H](Oc3c4cc5cc3Oc3ccc(cc3Cl)[C@@H](O)[C@@H](NC(=O)[C@@H](CC(C)C)NC)C(=O)N[C@@H](CC(N)=O)C(=O)N[C@H]5C(=O)N[C@H]3C(=O)N[C@H](C(=O)N[C@H](C(=O)O)c5cc(O)c(CNCP(=O)(O)O)c(O)c5-c5cc3ccc5O)[C@H](O)c3ccc(c(Cl)c3)O4)O[C@H](CO)[C@@H](O)[C@@H]2O)O[C@@H](C)[C@H]1O [Telavancin, telavancin]",half-life,[1],8 h
same,MIC,"[2]; Corning NBS, MHB +T80",0.125 µg/mL
same,MIC,"[2]; Corning NBS, MHB -T80",0.06 to 0.125 µg/mL
same,MIC,"[2]; Corning PS, MHB +T80",0.125 µg/mL
same,MIC,"[2]; Corning PS, MHB -T80",0.125 to 0.5 µg/mL
same,MIC,"[2]; Corning TC, MHB +T80",0.25 µg/mL
same,MIC,"[2]; Corning TC, MHB -T80",1 to 8 µg/mL
same,MIC,"E. faecalis ATCC 29212; Corning NBS, MHB +T80",0.06 µg/mL
same,MIC,"E. faecalis ATCC 29212; Corning NBS, MHB -T80",0.06 to 0.125 µg/mL
same,MIC,"E. faecalis ATCC 29212; Corning PS, MHB +T80",0.03 to 0.06 µg/mL
same,MIC,"E. faecalis ATCC 29212; Corning PS, MHB -T80",0.125 to 0.5 µg/mL
same,MIC,"E. faecalis ATCC 29212; Corning TC, MHB +T80",0.06 to 0.125 µg/mL
same,MIC,"E. faecalis ATCC 29212; Corning TC, MHB -T80",0.5 to 4 µg/mL
same,MIC,"S. pneumoniae ATCC 33440; Corning NBS, MHB +T80",0.125 µg/mL
same,MIC,"S. pneumoniae ATCC 33440; Corning NBS, MHB -T80",0.125 µg/mL
same,MIC,"S. pneumoniae ATCC 33440; Corning PS, MHB +T80",0.125 µg/mL
same,MIC,"S. pneumoniae ATCC 33440; Corning PS, MHB -T80",0.5 to 4 µg/mL
same,MIC,"S. pneumoniae ATCC 33440; Corning TC, MHB +T80",0.25 µg/mL
same,MIC,"S. pneumoniae ATCC 33440; Corning TC, MHB -T80",1 to 2 µg/mL
same,MIC,"[3]; Corning NBS, MHB +T80",0.06 to 0.125 µg/mL
same,MIC,"[3]; Corning NBS, MHB -T80",0.03 to 0.06 µg/mL
same,MIC,"[3]; Corning PS, MHB +T80",0.06 to 0.125 µg/mL
same,MIC,"[3]; Corning PS, MHB -T80",0.06 µg/mL
same,MIC,"[3]; Corning TC, MHB +T80",0.125 µg/mL
same,MIC,"[3]; Corning TC, MHB -T80",0.5 to 2 µg/mL
same,MIC,"[4]; Corning NBS, MHB +T80",0.125 to 0.25 µg/mL
same,MIC,"[4]; Corning NBS, MHB -T80",0.06 to 0.125 µg/mL
same,MIC,"[4]; Corning PS, MHB +T80",0.25 to 0.5 µg/mL
same,MIC,"[4]; Corning PS, MHB -T80",0.25 to 2 µg/mL
same,MIC,"[4]; Corning TC, MHB +T80",0.25 µg/mL
same,MIC,"[4]; Corning TC, MHB -T80",0.5 to 2 µg/mL
same,MIC (literature),MRSA,"0.06 ([66], [67]) µg/ml"
same,MIC,"S. pyogenes ATCC 12344; Corning NBS, MHB +T80",0.003 to 0.015 µg/mL
same,MIC,"S. pyogenes ATCC 12344; Corning NBS, MHB -T80",≤ 0.003 µg/mL
same,MIC,"S. pyogenes ATCC 12344; Corning PS, MHB -T80",≤ 0.003 µg/mL
same,MIC,"S. pyogenes ATCC 12344; Corning TC, MHB +T80",0.007 to 0.015 µg/mL
same,MIC,"S. pyogenes ATCC 12344; Corning TC, MHB -T80",≤ 0.003 µg/mL
same,protein binding,[5],90 to 93%
same,MIC,"MRSA ATCC 43300; Corning NBS, MH + 2% LHB, 2% LS, n = 2",0.125 µg/mL
same,MIC,"MRSA ATCC 43300; Corning NBS, MH + 2% LHB, 50% HS, n = 2",0.25 µg/mL
same,MIC,"MRSA ATCC 43300; Corning NBS, MH + 2% LHB, no additive, n = 2",0.06 to 0.125 µg/mL
same,MIC,"MRSA ATCC 43300; Corning NBS, MH + T80, 2% LS, n = 2",0.06 to 0.125 µg/mL
same,MIC,"MRSA ATCC 43300; Corning NBS, MH + T80, 50% HS, n = 2",0.25 µg/mL
same,MIC,"MRSA ATCC 43300; Corning NBS, MH, 2% LS, n = 2",0.125 µg/mL
same,MIC,"MRSA ATCC 43300; Corning NBS, MH, 50% HS, n = 2",0.25 µg/mL
same,MIC,"MRSA ATCC 43300; Corning PS, MH + 2% LHB, 2% LS, n = 2",0.125 µg/mL
same,MIC,"MRSA ATCC 43300; Corning PS, MH + 2% LHB, 50% HS, n = 2",0.125 to 0.25 µg/mL
same,MIC,"MRSA ATCC 43300; Corning PS, MH + 2% LHB, no additive, n = 2",0.06 µg/mL
same,MIC,"MRSA ATCC 43300; Corning PS, MH + T80, 2% LS, n = 2",0.06 to 0.25 µg/mL
same,MIC,"MRSA ATCC 43300; Corning PS, MH + T80, 50% HS, n = 2",0.25 µg/mL
same,MIC,"MRSA ATCC 43300; Corning PS, MH, 2% LS, n = 2",0.03 to 0.125 µg/mL
same,MIC,"MRSA ATCC 43300; Corning PS, MH, 50% HS, n = 2",0.125 to 0.25 µg/mL
same,MIC,"MRSA ATCC 43300; Corning TC, MH + 2% LHB, 2% LS, n = 2",0.25 to 1 µg/mL
same,MIC,"MRSA ATCC 43300; Corning TC, MH + 2% LHB, 50% HS, n = 2",2 to 8 µg/mL
same,MIC,"MRSA ATCC 43300; Corning TC, MH + 2% LHB, no additive, n = 2",0.125 µg/mL
same,MIC,"MRSA ATCC 43300; Corning TC, MH + T80, 2% LS, n = 2",0.125 to 0.25 µg/mL
same,MIC,"MRSA ATCC 43300; Corning TC, MH + T80, 50% HS, n = 2",0.25 to 1 µg/mL
same,MIC,"MRSA ATCC 43300; Corning TC, MH, 2% LS, n = 2",0.25 to 0.5 µg/mL
same,MIC,"MRSA ATCC 43300; Corning TC, MH, 50% HS, n = 2",0.5 to 1 µg/mL
same,MIC,"MRSA ATCC 43300; Corning flat NBS plate, MHB +0.002% T80, no further additive, n = 2",0.125 µg/mL
same,MIC,"MRSA ATCC 43300; Corning flat NBS plate, MHB −T80, no additive, n = 2",0.03 to 0.06 µg/mL
same,MIC,"MRSA ATCC 43300; Corning flat PS plate, MHB +0.002% T80, no further additive, n = 2",0.03 to 0.06 µg/mL
same,MIC,"MRSA ATCC 43300; Corning flat PS plate, MHB −T80, no additive, n = 2",0.06 µg/mL
same,MIC,"MRSA ATCC 43300; Corning flat TC plate, MHB +0.002% T80, no further additive, n = 2",0.125 to 0.25 µg/mL
same,MIC,"MRSA ATCC 43300; Corning flat TC plate, MHB −T80, no additive, n = 2",1 µg/mL
same,MIC,"MRSA ATCC 43300; Nunc U TC plate, MHB +0.002% T80, n = 2",0.25 to 0.5 µg/mL
same,MIC,"MRSA ATCC 43300; Nunc U TC plate, MHB −T80, n = 2",0.5 µg/mL
same,MIC,"MRSA ATCC 43300; Nunc flat PS plate, MHB +0.002% T80, n = 2",0.06 µg/mL
same,MIC,"MRSA ATCC 43300; Nunc flat PS plate, MHB −T80, n = 2",0.06 µg/mL
same,MIC,"MRSA ATCC 43300; Nunc flat TC plate, MHB +0.002% T80, n = 2",0.125 to 0.25 µg/mL
same,MIC,"MRSA ATCC 43300; Nunc flat TC plate, MHB −T80, n = 2",0.5 to 1 µg/mL
same,MIC,MRSA ATCC 43300; TC plates without additive,0.5 to 1 µg/mL
same,MIC,"MRSA ATCC 43300; Trek PS, MH + 2% LHB, 2% LS, n = 2",0.06 to 0.25 µg/mL
same,MIC,"MRSA ATCC 43300; Trek PS, MH + 2% LHB, 50% HS, n = 2",0.06 to 0.125 µg/mL
same,MIC,"MRSA ATCC 43300; Trek PS, MH + 2% LHB, no additive, n = 2",0.015 µg/mL
same,MIC,"MRSA ATCC 43300; Trek PS, MH + T80, 2% LS, n = 2",0.06 µg/mL
same,MIC,"MRSA ATCC 43300; Trek PS, MH + T80, 50% HS, n = 2",0.125 to 0.25 µg/mL
same,MIC,"MRSA ATCC 43300; Trek PS, MH, 2% LS, n = 2",0.03 to 0.06 µg/mL
same,MIC,"MRSA ATCC 43300; Trek PS, MH, 50% HS, n = 2",0.125 µg/mL
same,MIC,"MRSA ATCC 43300; Trek flat PS plate, MHB +0.002% T80, no further additive, n = 2",0.03 to 0.06 µg/mL
same,MIC,"MRSA ATCC 43300; Trek flat PS plate, MHB −T80, no additive, n = 2",0.03 to 0.06 µg/mL
same,MIC,"MRSA ATCC 43300; all 3 untreated PS plates, with and without added T80",around 0.06 µg/ml
